Experimental data taken from patent publication US8536208B2, “Antifungal composition” (Basilea Pharmaceutica AG, priority 2007, dated 2013).

Experiment: Single dose bioavailability study on fasted subjects
Details: human, in vivo, Galenical formulation Example 4 (composition 2.3)
Experimental: A single dose bioavailability study is conducted on N fasted subjects using the composition of this Example (N=7, dose of compound I-A 433.3 mg corresponding to 400 mg free base of formula I-B), and the same amount in powder form filled into hard capsules, (N=6). BAL8557, a water-soluble prodrug of the compound of formula I-B according to EP-A-1 280 795, is used as a standard (capsule comprising BAL 8557 in powder form in an amount corresponding to 400 mg free base of formula I-B; N=3).

[1] = single oral dose 433.3 mg I-A (400 mg free base I-B), N=7

With C[C@@H](c1nc(-c2ccc(C#N)cc2)cs1)[C@](O)(Cn1cncn1)c1cc(F)ccc1F.Cl [Compound I-A] the bioavailability (433.3 mg, single oral dose equal to 400 mg free base I-B, BAL 8557 as standard, read-out: Frel (relative bioavailability)) was 90%, the Cmax [1] was 4410 ng/mL and the Tmax [1] was 1.5 h. The half-life [1] was 88 h and the AUC (single oral dose 433.3 mg I-A (400 mg free base I-B), N=7, read-out: AUCinfinite) was 193 µg·h/mL.
